Type in all cases: physicochemical
Data set [1] in a line: LNP encapsulation efficiency of RNA (Ribogreen fluorescence assay). To be noted: sgRNA:mRNA 1:2. The procedure: (§1) LNP compositions are analyzed for average particle size, polydispersity index (pdi), total RNA content, encapsulation efficiency of RNA, and zeta potential. LNP compositions may be further characterized by lipid analysis, AF4-MALS, NTA, and/or cryo-EM.
Encapsulation efficiency is calculated as (Total RNA−Free RNA)/Total RNA. A fluorescence-based assay (Ribogreen®, ThermoFisher Scientific) is used to determine total RNA concentration and free RNA. LNP samples are diluted appropriately with 1×TE buffer containing 0.2% Triton-X 100 to determine total RNA or 1×TE buffer to determine free RNA. Standard curves are prepared by utilizing the starting RNA solution used to make the compositions and diluted in 1×TE buffer+/−0.2% Triton-X 100. Diluted RiboGreen® dye (according to the manufacturer's instructions) is then added to each of the standards and samples and allowed to incubate for approximately 10 minutes at room temperature, in the absence of light. A SpectraMax M5 Microplate Reader (Molecular Devices) is used to read the samples with excitation, auto cutoff and emission wavelengths set to 488 nm, 515 nm, and 525 nm respectively. Total RNA and free RNA are determined from the appropriate standard curves. Alternatively, the total RNA concentration can be determined by a reverse-phase ion-pairing (RP-IP) HPLC method. Triton X-100 is used to disrupt the LNPs, releasing the RNA. The RNA is then separated from the lipid components chromatographically by RP-IP HPLC and quantified against a standard curve using UV absorbance at 260 nm.
(§2) In vivo editing efficiency for materials delivered with formulations including various amine lipid (or ionizable lipid) compounds in Experiments 1 through 14 as described in Tables 3 and 4 was assessed. Editing was measured using G000534 (SEQ ID NO: 5) which targets the rat TTR gene. Lipids described above were assessed for efficacy through in vivo editing experiments. LNPs were formulated at a 1:2 w/w ratio of sgRNA (SEQ ID NO: 5) and Cas9 mRNA (SEQ ID NO: 3). In Experiments 1 through 13, lipid components of the LNP are formulated in a molar ratio of 50% ionizable lipid, 38% cholesterol, 9% DSPC, and 3% PEG2K-DMG. In Experiment 14, lipid components of the LNP are formulated in a molar ratio of 50% ionizable lipid, 38% cholesterol, 9% DSPC, and 3% C13 Ether. The final LNPs used in different in vivo editing experiments were characterized to determine the encapsulation efficiency (% E), polydispersity index (PDI), and average particle size (Z-avg and number mean) according to the analytical methods provided above. The pKa values of each of the following ionizable lipids were also measured to be in the range of about 5.8 to about 7.6.
(§3) In vivo editing efficiency for materials delivered with formulations including various combinations of amine lipid (or ionizable lipid) and PEG lipid compounds was assessed as described in Tables 5 and 6. Editing was measured using G000534 (SEQ ID NO: 5) which targets the rat TTR gene. Lipids described above were assessed for efficacy through in vivo editing experiments. LNPs were formulated at a 1:2 w/w ratio of sgRNA (SEQ ID NO: 5) and Cas9 mRNA (SEQ ID NO:3). Lipid components of the LNP are formulated in a molar ratio of 50% ionizable lipid, 38% cholesterol, 9% DSPC, and 3% of various PEG lipids (e.g., PEG2K-DMG, C13 Ether, C14 Ether). The final LNPs used in different in vivo editing experiments were characterized to determine the encapsulation efficiency (% E), polydispersity index (PDI), and average particle size (Z-avg and number mean) according to the analytical methods provided above. The pKa values of each of the following ionizable lipids were also measured to be in the range of about 5.8 to about 7.6.
In vivo editing efficiency for materials delivered with formulations including various amine lipid (or ionizable lipid) compounds as described in Tables 7 and 8 was assessed. […]

Data set [2] in a line: pKa of unformulated amine lipid by TNS fluorescence. To be noted: sodium phosphate buffer; Table 2; unformulated amine lipid, TNS; read-out: Lipid pKa. The procedure: The pKa of each amine lipid was determined according to the method in Jayaraman, et al. (Angew Chem Int Ed Engl 51(34), 2012, 8529-8533) with the following adaptations. The pKa was determined for unformulated amine lipid in ethanol. Lipid stock solutions (2.94 mM) were diluted into Sodium Phosphate Buffers (0.1 M, Boston Bioproducts) of different pH (pH-range: 4.5-9.0) yielding a final lipid concentration of approx. 100 μM. The test samples were supplemented with TNS {6-(p-Toluidino)-2-naphthalenesulfonic acid sodium salt}, incubated and the fluorescence intensity was measured using excitation and emission wavelengths of 321 nm and 448 nm, respectively. The recorded data were normalized and the respective pKa values were derived from sigmoidal fitting.

Data set [3] can be described thus: LNP average particle size and polydispersity by dynamic light scattering. To be noted: sgRNA:mRNA 1:2. The procedure: Dynamic Light Scattering (“DLS”) is used to characterize the polydispersity index (“pdi” or “PDI”) and size of the LNPs of the present disclosure. DLS measures the scattering of light that results from subjecting a sample to a light source. PDI, as determined from DLS measurements, represents the distribution of particle size (around the mean particle size) in a population, with a perfectly uniform population having a PDI of zero.
as §1
Average particle size and polydispersity are measured by dynamic light scattering (DLS) using a Malvern Zetasizer DLS instrument. LNP samples were diluted with PBS buffer prior to being measured by DLS. Z-average diameter (“Z-avg”) which is an intensity-based measurement of average particle size was reported along with number average diameter (“number mean”) and PDI. A Malvern Zetasizer instrument is also used to measure the zeta potential of the LNP. Samples are diluted 1:17 (50 μL into 800 μL) in 0.1×PBS, pH 7.4 prior to measurement.
as §2, §3
In vivo editing efficiency for materials delivered with formulations including various amine lipid (or ionizable lipid) compounds as described in Tables 7 and 8 was assessed. Editing was measured using G000534 (SEQ ID NO: 5) which targets the rat TTR gene. Lipids described above were assessed for efficacy through in vivo editing experiments. LNPs were formulated at a 1:2 w/w ratio of sgRNA (SEQ ID NO: 5) and Cas9 mRNA (SEQ ID NO: 3). Lipid components of the LNP were formulated in a molar ratio of 50% ionizable lipid, 38% cholesterol, 9% DSPC, and 3% C13 Ether. […]

Setting [4] is: LNP with 50% ionizable lipid, 38% cholesterol, 9% DSPC, 3% C13 Ether (LNP #1, Compound 53: 3% PEG2K-DMG instead).
Where [5] appears, read: Table 3, Experiment 14, LNP with 3% C13 Ether.
Where [6] appears, read: Table 3, Experiments 1-13, LNP 50% ionizable lipid, 38% cholesterol, 9% DSPC, 3% PEG2K-DMG.

Structures are written as SMILES. Values joined by “and” are separate entries in the source; they are usually repeats but may differ in a detail not shown here. Identical values can stand only once.

For orientation: pKa means the negative logarithm of the acid dissociation constant.

For the compound `CCCCCCCCC(CCCCCCCC)OC(=O)CCCC(=O)OCC(COC(=O)CCCC(=O)OC(CCCCCCCC)CCCCCCCC)COC(=O)NCCN(CC)CC` [Compound 6, O,O′-(2-((((2-(diethylamino)ethyl)carbamoyl)oxy)methyl)propane-1,3-diyl) di(heptadecan-9-yl) diglutarate], the “% E (encapsulation efficiency)” value in data set [1] (setting [4]) stood at 99%; in data set [1] (setting [5]) it was 98%; in data set [1] (setting [6]) it was 99%; in data set [1] (Table 5, PEG lipid C13 Ether), 97%; in data set [1] (Table 5, PEG lipid C14 Ether), 98%; in data set [1] (Table 5, PEG lipid PEG2K-DMG), 97%. For the same compound, the “% E (encapsulation efficiency)” value in data set [1] (Table 7, LNP with 3% C13 Ether) is 98%. For the same compound, the pKa in data set [2] was 6.35. The “Number mean (average particle size)” value in data set [3] (setting [4]) is reported as 67 nm. Moreover, the “PDI (polydispersity index)” value in data set [3] (setting [4]) was 0.002. Also, the “Z-avg (average particle size)” value in data set [3] (setting [4]) came to 81 nm. For the same compound, the Number mean is 68 nm in data set [3] (setting [5]); 68 nm and 75 nm in data set [3] (setting [6]); 72 nm in data set [3] (Table 5, PEG lipid C13 Ether); 81 nm in data set [3] (Table 5, PEG lipid C14 Ether); 69 nm in data set [3] (Table 5, PEG lipid PEG2K-DMG); 71 nm in data set [3] (Table 7, LNP with 3% C13 Ether). Further, the PDI in data set [3] (setting [5]) is 0.02; in data set [3] (setting [6]), 0.014 and 0.02; in data set [3] (Table 5, PEG lipid C13 Ether), 0.01; in data set [3] (Table 5, PEG lipid C14 Ether), 0.01; in data set [3] (Table 5, PEG lipid PEG2K-DMG), 0.04; in data set [3] (Table 7, LNP with 3% C13 Ether), 0.01. For the same compound, the Z-avg in data set [3] (setting [5]) was 73 nm; in data set [3] (setting [6]), 75 nm and 79 nm; in data set [3] (Table 5, PEG lipid C13 Ether), 79 nm; in data set [3] (Table 5, PEG lipid C14 Ether), 86 nm; in data set [3] (Table 5, PEG lipid PEG2K-DMG), 78 nm; in data set [3] (Table 7, LNP with 3% C13 Ether), 78 nm.

As to `CCCCC/C=C\C/C=C\CCCCCCCC(=O)OCC(CCCCCCCCC(=O)OCC(CCCC)CCCCCC)COC(=O)OCCCN(CC)CC` (stereo not shown) [Compound 7, 11-((2-butyloctyl)oxy)-2-((((3-(diethylamino)propoxy)carbonyl)oxy)methyl)-11-oxoundecyl (9Z,12Z)-octadeca-9,12-dienoate], the “% E (encapsulation efficiency)” value in data set [1] (setting [6]) amounted to 98%. For the same compound, the pKa in data set [2] was found to be 6.09. Besides, in data set [3] (setting [6]), the Number mean came out at 68 nm, the PDI is given as 0.03 and the Z-avg came out at 74 nm.

As to `CCCCCCCCC(CCCCCCCC)OC(=O)CCCCCCC(COC(=O)CCCC(=O)OC(CCCCCCCC)CCCCCCCC)COC(=O)OCCCN(CC)CC` (stereo not shown) [Compound 8, 2-((((3-(diethylamino)propoxy)carbonyl)oxy)methyl)-9-(heptadecan-9-yloxy)-9-oxononyl heptadecan-9-yl glutarate], in data set [1] (setting [6]), the “% E (encapsulation efficiency)” value is recorded as 98%. Moreover, the pKa in data set [2] amounted to 5.85. Also, in data set [3] (setting [6]), the Number mean is 64 nm, the PDI is recorded as 0.03 and the Z-avg is recorded as 69 nm.

Turning to `CCCCC/C=C\C/C=C\CCCCCCCC(=O)OCC(CCCCCCCCC(=O)OC(CCCCCCCC)CCCCCCCC)COC(=O)OCCCN(CC)CC` (stereo not shown) [Compound 9, 2-((((3-(diethylamino)propoxy)carbonyl)oxy)methyl)-11-(heptadecan-9-yloxy)-11-oxoundecyl (9Z,12Z)-octadeca-9,12-dienoate], in data set [1] (setting [6]), the “% E (encapsulation efficiency)” value amounted to 99%. Besides, the pKa in data set [2] was found to be 5.87. In data set [3] (setting [6]), the Number mean was 61 nm and 65 nm and 62 nm; the PDI amounted to 0.03; the Z-avg is 68 nm and 73 nm.

With `CCCCC/C=C\C/C=C\CCCCCCCC(=O)OCC(CCCCCCCCC(=O)OC(CCCCCCCC)CCCCCCCC)COC(=O)NCCN(CC)CC` (stereo not shown) [Compound 10, 2-((((2-(diethylamino)ethyl)carbamoyl)oxy)methyl)-11-(heptadecan-9-yloxy)-11-oxoundecyl (9Z,12Z)-octadeca-9,12-dienoate], the “% E (encapsulation efficiency)” value in data set [1] (setting [6]) turned out to be 97%. Besides, in data set [2], the pKa was determined as 6.37. For the same compound, in data set [3] (setting [6]), the Number mean was 83 nm, the PDI is 0.04 and the Z-avg was 90 nm.

Source of the values: patent US20260337153A1, “IONIZABLE AMINE LIPIDS” (Intellia Therapeutics, Inc., priority 2023, published 2026).
